Test results taken from patent US10538535B2, “Antitumoral compounds” (priority 2017, dated 2020).
Where two headings read alike, the source gives them in different places.

Legend:
Test in all cases: cells
[1] = tested on: MDA-MB-231 cells; settings: for GI50 / CC50 / IC (TGI): Homo sapiens, MDA-MB-231, 72 h; for CC50: read-out: LC50; for IC (TGI): read-out: TGI
Text: (§1) The aim of this assay is to evaluate the in vitro cytostatic (ability to delay or arrest tumor cell growth) or cytotoxic (ability to kill tumor cells) activity of the samples being tested.
(§2) A colorimetric assay, using sulforhodamine B (SRB) reaction has been adapted to provide a quantitative measurement of cell growth and viability (following the technique described by Skehan et al. J. Natl. Cancer Inst. 1990, 82, 1107-1112). Another colorimetric assay based on 3-(4,5-Dimethylthiazol-2-yl)-2,5-diphenyltetrazolium bromide (MTT) reduction to a purple formazan has been also used to assess the antiproliferative activity (following the technique described by Mosmann et al. J. Immunol. Meth. 1983, 65, 55-63).
(§3) These forms of assays employ 96-well cell culture microplates following the standards of the American National Standards Institute and the Society for Laboratory Automation and Screening (ANSI SLAS 1-2004 (R2012) Oct. 12, 2011. All the cell lines used in this study were obtained from the American Type Culture Collection (ATCC) and derive from different types of human cancer.
(§4) A549, HT29, MDA-MB-231 and PSN1 cells were maintained in Dulbecco's Modified Eagle Medium (DMEM) while PC-3 and 22Rv1 cells were maintained in Roswell Park Memorial Institute Medium (RPMI). All cell lines were supplemented with 10% Fetal Bovine Serum (FBS), 2 mM L-glutamine, 100 U/mL penicillin, and 100 […] at 37° C., 5% CO2 and 98% humidity. For the experiments, cells were harvested from subconfluent cultures using trypsinization and resuspended in fresh medium before counting and plating.
(§5) A549, HT29, MDA-MB-231 and PSN1 cells were seeded in 96 well microtiter plates, at 5000 cells per well in aliquots of 150 μL, and allowed to attach to the plate surface for 18 hours (overnight) in drug free medium. After that, one control (untreated) plate of each cell line was fixed (as described below) and used for time zero reference value. Culture plates were then treated with test compounds (50 μL aliquots of 4× stock solutions in complete culture medium plus 4% DMSO) using ten 2/5 serial dilutions (concentrations ranging from 10 to 0.003 μg/mL) and triplicate cultures (1% final concentration in DMSO). After 72 hours treatment, the antitumor effect was measured by using the SRB methodology: Briefly, cells were washed twice with PBS, fixed for 15 min in 1% glutaraldehyde solution at room temperature, rinsed twice in PBS, and stained in 0.4% SRB solution for 30 min at room temperature. Cells were then rinsed several times with 1% acetic acid solution and air-dried at room temperature.
(§6) Effects on cell growth and survival were estimated by applying the NCI algorithm (Boyd M R and Paull K D. Drug Dev. Res. 1995, 34, 91-104). The values obtained in triplicate cultures were fitted by nonlinear regression to a four-parameters logistic curve by nonlinear regression analysis.

[2] = tested on: HT29 cells; settings: for CC50: read-out: LC50; for IC (TGI): read-out: TGI
Text: as §1, §2, §3, §4, §5, §6

[3] = tested on: A549 cells; settings: for CC50: read-out: LC50; for IC (TGI): read-out: TGI
Text: as §1, §2, §3, §4, §5, §6

[4] = tested on: PSN1 cells; settings: Homo sapiens, PSN1, 72 h; for CC50: read-out: LC50; for IC (TGI): read-out: TGI
Text: as §1, §2, §3, §4, §5, §6

SMILES | GI50 [1] [nM] | CC50 [1] [nM] | IC (TGI) [1] [nM] | GI50 ([2]; Homo sapiens, HT-29, 72 h) [nM] | CC50 ([2]; Homo sapiens, HT-29, 72 h) [nM] | IC (TGI) ([2]; Homo sapiens, HT-29, 72 h) [nM] | GI50 ([3]; Homo sapiens, A549, 72 h) [nM] | CC50 ([3]; Homo sapiens, A549, 72 h) [nM] | IC (TGI) ([3]; Homo sapiens, A549, 72 h) [nM] | CC50 [4] [nM] | IC (TGI) [4] [nM] | further results
COc1ccc2[nH]c3c(c2c1)C[C@@H](C(=O)O)N[C@]31CS[C@@H]2c3c(OC(C)=O)c(C)c4c(c3[C@H](COC1=O)N1[C@@H]2[C@H]2c3c(cc(C)c(OC)c3O)C[C@@H]([C@@H]1C#N)N2C)OCO4 [Compound 28-S] | 167 | 394 | 251 | 251 | 633 | 346 | 489 | > 1190 | > 1190 | 692 | 394 | GI50 [4]: 251 nM
COc1ccc2[nH]c3c(c2c1)C[C@H](CN)N[C@]31CS[C@@H]2c3c(OC(C)=O)c(C)c4c(c3[C@H](COC1=O)N1[C@@H]2[C@H]2c3c(cc(C)c(OC)c3O)C[C@@H]([C@@H]1C#N)N2C)OCO4 [Compound 26-R] | 1.17 | 1.46 | 1.22 | 0.729 | > 122 | 1.58 | 1.94 | > 122 | 3.4 | 3.52 | 1.7 | GI50 ([4]; PSN1, 72 hours treatment, SRB): 0.972 nM
COc1c(C)cc2c(c1O)[C@@H]1[C@@H]3[C@@H]4SC[C@]5(N[C@H](C)Cc6c5[nH]c5ccccc65)C(=O)OC[C@@H](c5c6c(c(C)c(OC(C)=O)c54)OCO6)N3[C@@H](C#N)[C@H](C2)N1C [A] | 7.07 | 14.1 | 9.38 | 7.71 | > 129 | 8.36 | 8.36 | > 129 | 8.87 | 19.3 | 15.4 | GI50 [4]: 12.9 nM
C=CCOC(=O)NC[C@@H]1Cc2c([nH]c3ccc(OC)cc23)[C@@]2(CS[C@@H]3c4c(OC(C)=O)c(C)c5c(c4[C@H](COC2=O)N2[C@@H]3[C@H]3c4c(cc(C)c(OC)c4O)C[C@@H]([C@@H]2C#N)N3C)OCO5)N1 [Compound 25-S] | 5.84 | 15.4 | 9.04 | 7.17 | > 110 | 7.72 | 7.17 | > 110 | 7.61 | 14.3 | 9.26 | GI50 ([4]; PSN1, 72 hours treatment, SRB): 6.84 nM
COc1c(C)cc2c(c1O)[C@@H]1[C@@H]3[C@@H]4SC[C@]5(NCCc6c5oc5ccccc65)C(=O)OC[C@@H](c5c6c(c(C)c(OC(C)=O)c54)OCO6)N3[C@@H](C#N)[C@H](C2)N1C [Compound 31] | 8.89 | 35.3 | 17 | 10.5 | > 131 | 15.7 | 19.6 | 23.5 | 20.9 | 43.1 | 15.7 | GI50 [4]: 6.8 nM
COc1ccc2[nH]c3c(c2c1)C[C@H](C(=O)O)N[C@]31CS[C@@H]2c3c(OC(C)=O)c(C)c4c(c3[C@H](COC1=O)N1[C@@H]2[C@H]2c3c(cc(C)c(OC)c3O)C[C@@H]([C@@H]1C#N)N2C)OCO4 [Compound 28-R] | 19.1 | 91.9 | 32.2 | 31 | > 1190 | 33.4 | 167 | > 1190 | 358 | 66.8 | 35.8 | GI50 [4]: 21.5 nM
C=CCOC(=O)NC[C@H]1Cc2c(oc3ccccc23)[C@@]2(CS[C@@H]3c4c(OC(C)=O)c(C)c5c(c4[C@H](COC2=O)N2[C@@H]3[C@H]3c4c(cc(C)c(OC)c4O)C[C@@H]([C@@H]2C#N)N3C)OCO5)N1 [Compound 45-R] | – | – | – | – | > 114 | – | – | – | – | – | – | –
COc1c(C)cc2c(c1O)[C@@H]1[C@@H]3[C@@H]4SC[C@]5(N[C@H](COC(C)=O)Cc6c5[nH]c5ccccc65)C(=O)OC[C@@H](c5c6c(c(C)c(OC(C)=O)c54)OCO6)N3[C@@H](O)[C@H](C2)N1C [Compound 4a-S] | – | – | – | – | > 121 | – | – | > 121 | – | – | – | –
C=CCOC(=O)NC[C@@H]1Cc2c([nH]c3ccccc23)[C@@]2(CS[C@@H]3c4c(OC(C)=O)c(C)c5c(c4[C@H](COC2=O)N2[C@@H]3[C@H]3c4c(cc(C)c(OC)c4O)C[C@@H]([C@@H]2C#N)N3C)OCO5)N1 [Compound 10-S] | – | – | – | – | > 1140 | – | – | – | – | – | – | –
C=CCOC(=O)NC[C@@H]1Cc2c(oc3ccccc23)[C@@]2(CS[C@@H]3c4c(OC(C)=O)c(C)c5c(c4[C@H](COC2=O)N2[C@@H]3[C@H]3c4c(cc(C)c(OC)c4O)C[C@@H]([C@@H]2C#N)N3C)OCO5)N1 [Compound 45-S] | – | – | – | – | > 114 | – | – | – | – | – | – | –
COc1c(C)cc2c(c1O)[C@@H]1[C@@H]3[C@@H]4SC[C@]5(N[C@@H](CN)Cc6c5oc5ccccc65)C(=O)OC[C@@H](c5c6c(c(C)c(OC(C)=O)c54)OCO6)N3[C@@H](C#N)[C@H](C2)N1C [Compound 46-R] | – | – | – | – | – | – | – | – | – | – | – | TGI ([1]; MDA-MB-231, 72 hours treatment, SRB): 1.39E−09 Molar; TGI ([2]; HT29, 72 hours treatment, SRB): 1.39E−09 Molar; CC50 ([2]; HT29, 72 hours treatment, SRB): > 126 nM; TGI ([3]; A549, 72 hours treatment, SRB): 2.77E−09 Molar; CC50 ([3]; A549, 72 hours treatment, SRB): > 126 nM
C=CCOC(=O)NC[C@@H]1Cc2c([nH]c3ccccc23)[C@@]2(CS[C@@H]3c4c(OC(C)=O)c(C)c5c(c4[C@H](COC2=O)N2[C@@H]3[C@H]3c4c(cc(C)c(OC)c4O)C[C@@H]([C@@H]2O)N3C)OCO5)N1 [Compound 13-S] | – | – | – | – | > 1150 | – | – | – | – | – | – | –
COc1c(C)cc2c(c1O)[C@@H]1[C@@H]3[C@@H]4SC[C@]5(N[C@H](CN)Cc6c5oc5ccccc65)C(=O)OC[C@@H](c5c6c(c(C)c(OC(C)=O)c54)OCO6)N3[C@@H](C#N)[C@H](C2)N1C [Compound 46-S] | – | – | – | – | > 126 | – | – | > 126 | – | – | – | –
C=CCOC(=O)NC[C@H]1Cc2c([nH]c3ccccc23)[C@@]2(CS[C@@H]3c4c(OC(C)=O)c(C)c5c(c4[C@H](COC2=O)N2[C@@H]3[C@H]3c4c(cc(C)c(OC)c4O)C[C@@H]([C@@H]2C#N)N3C)OCO5)N1 [Compound 10-R] | – | – | – | – | > 114 | > 114 | – | > 114 | – | – | – | –
COc1c(C)cc2c(c1O)[C@@H]1[C@@H]3[C@@H]4SC[C@]5(N[C@@H](CN)Cc6c5[nH]c5ccccc65)C(=O)OC[C@@H](c5c6c(c(C)c(OC(C)=O)c54)OCO6)N3[C@@H](C#N)[C@H](C2)N1C [Compound 11-R] | – | – | – | 1.39 | > 126 | > 126 | 1.77 | > 126 | – | > 126 | 1.89 | GI50 ([4]; PSN1, 72 hours treatment, SRB): 1.39 nM
COc1c(C)cc2c(c1O)[C@@H]1[C@@H]3[C@@H]4SC[C@]5(N[C@H](CN)Cc6c5[nH]c5ccccc65)C(=O)OC[C@@H](c5c6c(c(C)c(OC(C)=O)c54)OCO6)N3[C@@H](C#N)[C@H](C2)N1C [Compound 11-S] | – | – | – | – | > 126 | > 126 | – | > 126 | – | – | – | –
COc1c(C)cc2c(c1O)[C@@H]1[C@@H]3[C@@H]4SC[C@]5(N[C@@H](CO)Cc6c5oc5ccccc65)C(=O)OC[C@@H](c5c6c(c(C)c(OC(C)=O)c54)OCO6)N3[C@@H](O)[C@H](C2)N1C [Compound 39-R] | – | – | – | – | > 127 | – | – | > 127 | – | – | – | –
C=CCOC(=O)NC[C@H]1Cc2c([nH]c3ccccc23)[C@@]2(CS[C@@H]3c4c(OC(C)=O)c(C)c5c(c4[C@H](COC2=O)N2[C@@H]3[C@H]3c4c(cc(C)c(OC)c4O)C[C@@H]([C@@H]2O)N3C)OCO5)N1 [Compound 13-R] | – | – | – | – | > 115 | – | – | > 115 | – | – | – | –
